Measured values reported in patent EP0182152B1, “Antitumor antibiotics (LL-E33288 Complex)” (AMERICAN CYANAMID COMPANY, priority 1984, dated 1986).

Tests used:
Type in all cases: in vivo, BDF1 mice
[1] = system: melanotic melanoma B16; experiment: Melanotic Melanoma B16 Test
Excerpt: (§1) Certain in vivo testing systems and protocols have been developed by the National Cancer Institute for testing compounds to determine their suitability as anti-neoplastic agents. These have been reported in "Cancer Chemotherapy Reports", Part III, Vol. 3, No. 2 (1972), Geran, et al. These protocols have established standardized screening tests which are generally followed in the field of testing for antitumor agents. Of these systems, lymphocytic leukemia P388, melanotic melanoma B16, L1210 leukemia and colon 26 adenocarcinoma are particularly significant to the present invention. These neoplasms are utilized for testing as transplantable tumors in mice. Generally, significant anti-tumor activity, shown in these protocols by a percentage increase of mean survival times of the treated animals (T) over the control animals (C), is indicative of similar results in human leukemias and solid tumors.
The animals used were BDF1 mice, all of the same sex, weighing a minimum of 17 g and all within a 3 g weight range. There are normally 6 animals per test group. A 1 g portion of melanotic melanoma β16 tumor was homogenized in 10 ml of cold balanced salt solution and a 0.5 ml aliquot of the homogenate was implanted intraperitoneally into each of the test mice. LL-E33288 antibiotics were tested in the β16 system both as the individual β1-Br and γ1-Br components and as a complex of all components (Bromo-complex). The test compounds were administered intraperitioneally on days 1 through 9 (relative to tumor inoculation) at various doses. The mice were weighed and survivors recorded on a regular basis for 60 days. The median survival time and the ratio of survival time for treated (T)/control (C) animals were calculated. The positive control compounds were Cisplatin or Adriamycin. The results of this test appear in Table V. If T/C X 100 (%) is 125 or over, the tested compound is considered to have significant anti-tumor activity.
(§2) In the same manner, the following iodo-components were tested for antineoplastic activity.

[2] = system: lymphocytic leukemia L1210; experiment: Lymphocytic Leukemia L1210 Test
Excerpt: as §1
The animals used were BDF1 mice, all of one sex, weighing a minimum of 17 g and all within a 3 g weight range. There were 6 mice in each test group and 18 in control groups. The tumor transplant was by intraperitoneal injection of 0.5 ml of lymphocytic leukemia L1210 at a concentration of 10^5 cells per mouse. LL-E33288 antibiotics were tested in the L1210 system both as the individual β1-Br component and as a complex of all components (Bromo-complex). The test compounds were administered on days 1, 5 and 9 or days 1 through 9 (relative to tumor inoculation) at various doses. The mice were weighed and survivors recorded on a regular basis for 30 days. The median survival time and the ratio of survival time for treated (T)/control (C) animals were calculated. The positive control compound was 1,4-dihydroxy-5,8-bis[[2-(2-hydroxyethylamino)ethyl]amino]anthraquinone dihydrochloride or Cisplatin given intraperitoneally at the indicated dose. If T/C X 100 (%) is 125 or over, the tested compound is considered to have significant anti-tumor activity.
as §2

[3] = system: lymphocytic leukemia P388; experiment: Lymphocytic Leukemia P388 Test; settings: Table IX
Excerpt: as §1
The animals used were BDF1 mice, all of one sex, weighing a minimum of 17 g and all within a 3 g weight range. There were 5 or 6 mice per test group. The tumor transplant was by intraperitoneal injection of 0.5 ml of dilute ascitic fluid containing 10^6 cells of lymphocytic leukemia P388. LL-E33288 antibiotics were tested in the P388 system both as the individual β1-Br and […] components and as a complex of all components (Bromo-complex). The test compounds were administered intrapertioneally at a volume of 0.5 ml in 0.2% Klucel in normal saline on days 1, 5 and 9 (relative to tumor inoculation) at the indicated doses. The mice were weighed and the survivors recorded on a regular basis for 30 days. The median survival time and the ratio of survival time for treated (T)/control (C) animals were calculated. The positive control compound was Cisplatin given as an intraperitioneal injection in 0.5 ml of 0.2% Klucel on days 1, 5 and 9 at the indicated doses.
If T/C X 100 (%) is 125 or over, the tested compound is considered to have significant anti-tumor activity.
as §2

[4] = Table V, dose 0.4 mg/kg, control 19 days, survivors recorded for 60 days
[5] = Table V, dose 0.8 mg/kg, control 19 days, survivors recorded for 60 days
[6] = Table X, dose 0.2 mg/kg, control value not given
[7] = Table X, dose 0.4 mg/kg, control value not given
[8] = Table X, dose 0.8 mg/kg, control value not given
[9] = Table VI, days 1, 5 and 9 or days 1 through 9, dose 0.4 mg/kg, control 16.7 days
[10] = Table VI, days 1, 5 and 9 or days 1 through 9, dose 0.8 mg/kg, control 16.7 days
[11] = Table VI, i.p., dose 1.6 mg/kg, control 16.7 days
[12] = Table XI, dose 0.4 mg/kg, control 9 days
[13] = Table XI, dose 0.8 mg/kg, control 9 days
[14] = Table XI, dose 1.6 mg/kg, control 9 days
[15] = Table XI, dose 3.2 mg/kg, control 9 days
[16] = Test 1, dose 1.6 mg/kg, control 13 days
[17] = Test 2, dose 0.8 mg/kg, control 11 days
[18] = Test 2, dose 1.6 mg/kg, control 11 days

Compound: COc1cccc2c1C(=O)c1c(O)c3c(c(O)c1C2=O)C[C@@](O)(C(=O)CO)C[C@@H]3O[C@H]1C[C@H](N)[C@H](O)[C@H](C)O1 [Adriamycin]
- Median Survival [1, 4]: > 60 days
- T/C x 100 [1, 4]: > 316%
- Median Survival [1, 5]: > 60 days
- T/C x 100 [1, 5]: > 316%
- Median Survival [1, 6]: 34.5 days
- T/C x 100 [1, 6]: 203%
- Median Survival [1, 7]: 40 days
- T/C x 100 [1, 7]: 235%
- Median Survival [1, 8]: 48 days
- T/C x 100 [1, 8]: 282%

Compound: Cl.Cl.O=C1c2c(O)ccc(O)c2C(=O)c2c(NCCNCCO)ccc(NCCNCCO)c21 [Novantrone®, 1,4-dihydroxy-5,8-bis[[2-(2-hydroxyethylamino)ethyl]amino]anthraquinone dihydrochloride]
- Median Survival [2, 9]: 30 days
- T/C x 100 [2, 9]: 180%
- Median Survival [2, 10]: 30 days
- T/C x 100 [2, 10]: 180%
- Median Survival [2, 11]: 30 days
- T/C x 100 [2, 11]: 180%
- Median Survival [2, 12]: 11 days
- T/C x 100 [2, 12]: 122%
- Median Survival [2, 13]: 12 days
- T/C x 100 [2, 13]: 133%
- Median Survival [2, 14]: 11.5 days
- T/C x 100 [2, 14]: 128%
- Median Survival [2, 15]: 15 days
- T/C x 100 [2, 15]: 167%
- Median Survival [3, 16]: 22.5 days
- T/C x 100 [3, 16]: 173%
- Median Survival [3, 17]: 16 days
- T/C x 100 [3, 17]: 145%
- Median Survival [3, 18]: 19 days
- T/C x 100 [3, 18]: 173%
